In brackets after ≈: the same amount, converted by molar mass. Read-outs that look alike come from different tables or passages of the source.
Assay: Solubility in acetonitrile, determined by 1H NMR spectroscopy
Format: physicochemical
Description: The solubility of each of such mixtures was determined according to the following procedure: acetonitrile was added to the vials containing the samples in aliquots ranging from 0.1 to 1 mL; after every aliquot of solvent was added, each sample was shaken, sonicated, and lightly warmed up with a heat gun (about 40° C.); if the suspended solid persisted, another aliquot was added, and the process repeated until a clear solution was obtained. The warm solution was left to cool down to room temperature: if any solid formed, more solvent was added, and the process repeated until the solution remained clear indefinitely. The solubility was then determined using ^1H NMR spectroscopy. […] The results are summarized in Table 1: in both the cases examined, the solubility of EPT increased substantially when mixed with MEPT.

[1] = organic solvent or mixture, thermodynamic from solid, pure compound in acetonitrile, room temperature, read-out: Solubility of the single component
[2] = pure compound in acetonitrile, room temperature
[3] = acetonitrile, RPT-TFSI and the corresponding binary blend

Row | solubility [1] [mM] | Structure (SMILES) | solubility [3] [mM] | also measured
1 | 110 (≈ 25 mg/mL) | CCN1c2ccccc2Sc2ccccc21 [EPT, N-ethylphenothiazine] | – | –
2 | – | CCN1c2ccccc2[S+]c2ccccc21.F[B-](F)(F)F [EPT-BF4, EPT-tetrafluoroborate] | – | Solubility of the single component [2]: 0.33 mol/L
3 | – | CCN1c2ccccc2[S+]c2ccccc21.O=S(=O)([N-]S(=O)(=O)C(F)(F)F)C(F)(F)F [EPT-TFSI, EPT-bis(trifluoromethanesulfonyl)imide] | 370 | –
4 | – | COCCN1c2ccccc2Sc2ccccc21 [MEPT, N-(2-methoxyethyl)phenothiazine] | – | Miscibility in acetonitrile (acetonitrile): miscible in acetonitrile in all ratios
5 | – | COCCN1c2ccccc2[S+]c2ccccc21.F[B-](F)(F)F [MEPT-BF4, MEPT-tetrafluoroborate] | – | Solubility of the single component [2]: 0.31 mol/L
6 | 240 (≈ 51.2 mg/mL) | CN1c2ccccc2Sc2ccccc21 [MPT, N-methylphenothiazine] | – | –
7 | – | CN1c2ccccc2[S+]c2ccccc21.O=S(=O)([N-]S(=O)(=O)C(F)(F)F)C(F)(F)F [MPT-TFSI, MPT-bis(trifluoromethanesulfonyl)imide] | 1500 | –
8 | 140 (≈ 38.6 mg/mL) | c1ccc(N2c3ccccc3Sc3ccccc32)cc1 [PhPT, N-phenylphenothiazine] | – | –
9 | – | O=S(=O)([N-]S(=O)(=O)C(F)(F)F)C(F)(F)F.c1ccc(N2c3ccccc3[S+]c3ccccc32)cc1 [PhPT-TFSI, PhPT-bis(trifluoromethanesulfonyl)imide] | 1640 | –
